Numbering of substitutions follows the chain as printed.
What was measured:
[1] = molecular target: T1, M896T-AR (Homo sapiens, UniProt P10275, M896T); type: cell-based; conditions: AR mutant M896T; transfected PC3 cells; 0.1 nM R1881; drug 0 to 50 μM
T1 sequence (P10275 1-920 M896T): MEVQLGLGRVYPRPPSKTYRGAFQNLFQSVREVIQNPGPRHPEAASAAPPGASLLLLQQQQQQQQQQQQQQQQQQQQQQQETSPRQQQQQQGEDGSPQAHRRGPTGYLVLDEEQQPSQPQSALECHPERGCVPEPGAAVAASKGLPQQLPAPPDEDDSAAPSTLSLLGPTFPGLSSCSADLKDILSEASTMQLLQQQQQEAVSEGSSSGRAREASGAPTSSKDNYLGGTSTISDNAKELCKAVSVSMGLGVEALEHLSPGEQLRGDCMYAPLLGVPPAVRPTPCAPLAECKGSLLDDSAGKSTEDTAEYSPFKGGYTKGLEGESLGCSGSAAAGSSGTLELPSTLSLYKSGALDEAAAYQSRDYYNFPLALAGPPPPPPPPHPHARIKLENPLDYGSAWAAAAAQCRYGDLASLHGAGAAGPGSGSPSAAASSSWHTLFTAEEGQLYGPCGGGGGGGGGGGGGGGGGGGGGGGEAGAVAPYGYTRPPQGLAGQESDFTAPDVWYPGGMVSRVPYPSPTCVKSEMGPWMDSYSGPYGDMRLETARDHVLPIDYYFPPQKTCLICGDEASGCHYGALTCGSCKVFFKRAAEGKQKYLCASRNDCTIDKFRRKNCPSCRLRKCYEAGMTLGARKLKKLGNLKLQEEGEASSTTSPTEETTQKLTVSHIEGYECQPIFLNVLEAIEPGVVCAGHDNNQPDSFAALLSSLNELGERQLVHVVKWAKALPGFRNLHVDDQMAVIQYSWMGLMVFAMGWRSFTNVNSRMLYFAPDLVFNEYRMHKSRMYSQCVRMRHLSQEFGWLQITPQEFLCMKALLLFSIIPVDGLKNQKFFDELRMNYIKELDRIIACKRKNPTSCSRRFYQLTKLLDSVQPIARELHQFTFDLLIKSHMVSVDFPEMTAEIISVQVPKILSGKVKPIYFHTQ
Excerpt: (§1) Full-length human AR (WT-AR) was encoded on a pcDNA3.1 expression plasmid (Life technologies). The LBD point mutations (single and multiple) were generated using the QuikChange II Site-Directed Mutagenesis Kit (Agilent Technologies) as per manufacturer’s instructions using WT-AR as the template. The mutagenic oligonucleotide primers were designed individually with the desired mutation in the middle of the primer with approximately 10 to 15 bases of correct sequence on both sides.
(§2) PC3 cells were seeded and transfected as described above. […] A non-stimulated/no R1881 control was used. After 24 h, cells were lysed and AR-dependent luciferase activity was quantified. Each concentration was assayed in quadruplicate n = 4, with a biological replicate of n = 3. Results were averaged and normalized by expressing them as a percentage of WT AR activity.

[2] = molecular target: T2, H875Y/T878A-AR (Homo sapiens, UniProt P10275, H875Y/T878A); type: cell-based; conditions: AR mutant H875Y/T878A; transfected PC3 cells; 0.1 nM R1881; drug 0 to 50 μM
T2 sequence (P10275 1-920 H875Y/T878A): T1 sequence (P10275 1-920 M896T) with H875Y, T878A, T896M
Excerpt: as §1, §2

Q: For CC(C)(O)C(=O)Nc1ccc([N+](=O)[O-])c(C(F)(F)F)c1 [Hydroxyflutamide, hydroxyflutamide], which “Agonist response to treatment” value [1] is on record?
A: Its value is “Partial”.

Q: And the “Agonist response to treatment” value [2]?
A: The value was “Yes”.

— paper PMC4729137, “Functional analysis of androgen receptor mutations that confer anti-androgen resistance identified in circulating cell-free DNA from prostate cancer patients” (Genome Biology, 2016)
